Counter-ions that a name gives are not always drawn.
Assays:
p38 MAP kinase = target: T1, p38 MAP kinase (Homo sapiens, UniProt Q16539); assay: in vitro inhibition of p-38 (MAP) kinase: transfer of γ-phosphate from γ-33P-ATP to Myelin Basic Protein; format: biochemical; details: phosphorylated recombinant p38 MAP kinase, MBP substrate, 30° C., read-out: IC50 (p-38 inhibitory activity, concentration causing 50% inhibition of the p-38 enzyme)
T1 construct: made in house; host or cells: E. coli (co-expressed with SEK-1 and MEKK to obtain the phosphorylated form)
Experimental: This example illustrate an assay protocol for determining in vitro inhibition of p-38 (MAP) Kinase.
The p-38 MAP kinase inhibitory activity of compounds of this invention in vitro was determined by measuring the transfer of the γ-phosphate from γ-^33P-ATP by p-38 kinase to Myelin Basic Protein (MBP), using the a minor modification of the method described in Ahn, N. G.; et al. J. Biol. Chem. Vol. 266(7), 4220-4227, (1991).
The phosphorylated form of the recombinant p38 MAP kinase was expressed with SEK-1 and MEKK in E. Coli and then purified by affinity chromatography using a Nickel column.
The phosphorylated p38 MAP kinase was diluted in kinase buffer (20 mM 3-(N-morpholino)propanesulfonic acid, pH 7.2, 25 mM β-glycerol phosphate, 5 mM ethylene glycol-bis(beta-aminoethyl ether)-N,N,N′,N′-tetraacetic acid, 1 mM sodium vanadate, 1 mM dithiothreitol, 40 mM magnesium chloride). Test compound dissolved in DMSO or only DMSO (control) was added and the samples were incubated for 10 min at 30° C. The kinase reaction was initiated by the addition of a substrate cocktail containing MBP and γ-^33P-ATP. After incubating for an additional 20 min at 30° C., the reaction was terminated by adding 0.75% phosphoric acid. The phosphorylated MBP was then separated from the residual γ-^33P-ATP using a phosphocellulose membrane (Millipore, Bedford, Mass.) and quantitated using a scintillation counter (Packard, Meriden, Conn.).
Compounds of the invention were active in this assay. The p-38 inhibitory activities (expressed as IC50 , the concentration causing 50% inhibition of the p-38 enzyme being assayed) of some compounds of the invention are: […]

T1 sequence (Q16539 whole entry): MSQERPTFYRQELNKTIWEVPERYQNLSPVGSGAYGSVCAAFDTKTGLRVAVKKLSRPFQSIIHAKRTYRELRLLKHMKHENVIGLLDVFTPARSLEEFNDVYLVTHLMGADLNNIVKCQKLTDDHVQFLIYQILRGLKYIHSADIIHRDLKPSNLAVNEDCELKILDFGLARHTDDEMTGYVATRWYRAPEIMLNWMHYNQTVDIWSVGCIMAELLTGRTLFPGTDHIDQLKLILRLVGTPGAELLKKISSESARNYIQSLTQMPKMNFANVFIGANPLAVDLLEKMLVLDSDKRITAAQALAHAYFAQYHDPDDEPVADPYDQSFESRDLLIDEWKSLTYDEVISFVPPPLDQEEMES

| SMILES | melting point [°C] | IC50 (p38 MAP kinase) [nM] |
| --- | --- | --- |
| C[C@H](Nc1ncc2cc(-c3ccccc3Cl)c(=O)n(-c3ccc(F)cc3)c2n1)C(C)(C)O (as salt: HCl) [Cpd 7] | 142 to 149 | – |
| Cl.O=C(O)CN1CCC(CNc2ncc3cc(-c4ccccc4Cl)c(=O)[nH]c3n2)CC1 [Cpd 3] | 235.3 to 237.9 | 2200 |
| CN(C)C(=O)CN1CCC(CNc2ncc3cc(-c4ccccc4Cl)c(=O)[nH]c3n2)CC1.Cl [Cpd 4] | 211.8 to 212.8 | 6270 |
| C[C@H](Nc1ncc2cc(-c3ccccc3Cl)c(=O)n(C)c2n1)C(C)(C)O [Cpd 8] | – | 31 |
| Nn1c(=O)c(-c2ccccc2Cl)cc2cnc(NC3CCCC3)nc21 [Cpd 11] | 147 to 154 | 24 |
| Cn1c(=O)c(-c2ccccc2Cl)cc2cnc(NC(C)(C)CO)nc21 (as salt: HCl) [Cpd 1] | 228.6 to 228.9 | – |
| C[C@H](Nc1ncc2cc(-c3ccccc3Cl)c(=O)n(C)c2n1)C(C)(C)O.Cl | 194 to 195.3 | – |
| C[C@H](Nc1ncc2cc(-c3ccccc3Cl)c(=O)n(C3CC3)c2n1)C(C)(C)O [Cpd 12] | – | 124 |
| Cl.Cn1c(=O)c(-c2ccccc2Cl)cc2cnc(NC3CCC3)nc21 [Cpd 10] | 205.3 to 210.9 | 42 |
| C[C@H](Nc1ncc2cc(-c3ccccc3Cl)c(=O)n(-c3ccc(F)cc3)c2n1)C(C)(C)O [Cpd 7] | – | 0.3 |
| C[C@@H](Nc1ncc2cc(-c3ccccc3Cl)c(=O)n(-c3ccc(F)cc3)c2n1)C(C)(C)O [Cpd 6] | 206.8 to 207.5 | – |
| COCCC(C)Nc1ncc2cc(-c3ccccc3Cl)c(=O)n(C)c2n1.Cl (stereo not shown) | 156.4 to 160.2 | – |
| Cn1c(=O)c(-c2ccccc2Cl)cc2cnc(NC(C)(C)CO)nc21 [Cpd 1] | – | 52 |
| C[C@H](Nc1ncc2cc(-c3ccccc3Cl)c(=O)n(N)c2n1)C(C)(O)O.Cl | > 300 | – |
| CC(Nc1ncc2cc(-c3ccccc3Cl)c(=O)n(C)c2n1)C(C)S(C)(=O)=O.Cl (stereo not shown) | 142.1 to 144.3 | – |
| COC(=O)CN1CCC(CNc2ncc3cc(-c4ccccc4Cl)c(=O)[nH]c3n2)CC1.Cl | 220 to 221.1 | – |
| CC(C)(CO)Nc1ncc2cc(-c3ccccc3Cl)c(=O)n(N)c2n1 [Cpd 13] | – | 48 |
| CN1CCC(CNc2ncc3cc(-c4ccccc4Cl)c(=O)[nH]c3n2)CC1.Cl | 213 to 220 | – |
| Cn1c(=O)c(-c2ccccc2Cl)cc2cnc(N[C@H](CO)C(C)(C)C)nc21 [Cpd 18] | 171.2 to 174 | 92 |
| C[C@H](Nc1ncc2cc(-c3ccccc3Cl)c(=O)n(C)c2n1)C(C)(C)O (as salt: HCl) [Cpd 8] | 178 to 181.5 | – |

From US6518276B2, “7-oxo-pyridopyrimidines (II)” (Syntex (U.S.A.) LLC, priority 2000, dated 2003)
